Measured values: patent publication US20210369753A1, “NUTRIENT COMPOSITION ABLE TO INHIBIT QUORUM SENSING” (Brilliant Lab LLC, priority 2020, published 2021)
Where two headings read alike, the source gives them in different places.

Experiments:
[1] = test system: C. violaceum; conditions: cited from earlier work
[2] = test system: S. aureus; conditions: cited from earlier work
[3] = test system: P. aeruginosa; conditions: cited from earlier work
[4] = test system: P. fluorescens; conditions: cited from earlier work
[5] = test system: E. coli; conditions: E. coli O157:H7; cited from earlier work
[6] = test system: Acinetobacter; conditions: cited from earlier work
[7] = test system: Burkholderia; conditions: cited from earlier work
[8] = test system: Pseudomonas aeruginosa (ATCC 10145); test: Pyocyanin assay; assay type: cell-based; conditions: overnight culture, test materials in DMSO and in ethanol
[9] = test system: S. aureus (ATCC 12600); test: Biofilm assay (crystal violet); assay type: cell-based, Staphylococcus aureus; conditions: 0.25-5 mg/mL, overnight, crystal violet OD 590 nm
Procedure: (§1) Biofilm assay: The biofilm assay was based on the method of Chong, et al. (2011). The model composition and Catechin were prepared at 100 mg/mL in ethanol. Appropriate volumes of each were added to eight replicate wells of a v-well 96-well plate to result in 0.25, 0.5, 1.25 and 5 mg/mL final concentrations for a 200 microliter final volume. The plate was air dried until all of the ethanol has evaporated. From fresh overnight cultures of P. aeruginosa (ATCC 10145) and S. aureus (ATCC 12600), solutions at OD600 of 0.1 were prepared in Nutrient broth/0.5% glucose. Two hundred microliters of the cultures were added to all wells and mixed by pipetting. The plates were covered with breathable films and incubated overnight without shaking at 37 degrees C. The cultures were removed, and the plates rinsed several times with water. Two hundred microliters of 0.1% crystal violet was added to each well and incubated at room temperature for 30 minutes. […] One hundred microliters of the solubilized crystal violet was transferred to a flat-bottom polystyrene plate and the optical density measured at 590 nm.
(§2) BIOFILM ASSAY: The composition of EXAMPLE XI was evaluated for anti-biofilm activity against Pseudomonas aeruginosa and Staphylococcus aureus. […]
(§3) The plates were incubated statically overnight. […] The crystal violet was quantified by measuring the optical density at 590 nm.

[10] = test system: P. aeruginosa (ATCC 10145); test: Biofilm assay (crystal violet); assay type: cell-based, Pseudomonas aeruginosa; conditions: 0.25-5 mg/mL, overnight, crystal violet OD 590 nm
Procedure: as §1, §2, §3

[11] = test system: C. violaceum (CV026); test: Violaceum assay (modified, butanol extraction); assay type: cell-based, Chromobacterium violaceum
Procedure: SUMMARY OF METHODS: (+)-Catechin was used as a positive control in the halo and violaceum assays. Varying concentrations of the composition of EXAMPLE XI or catechin mixed with C. violaceum were added to an agar plate and the generated halo was analyzed both by visual inspection and measurement. Method for Violaceum assays included adding either the composition of EXAMPLE XI or catechin to a solution of C. violaceum (strain CV026). After workup, the solutions were transferred to a 96 well plate and optical density was recorded at 590 nm. Optical density values were normalized to unextracted samples as a control.
Violaceum Assay: The violaceum assay was adapted from the method of Blosser, et al., Journal of Microbiological Methods 2000, 40, pp. 47-55. The model composition and Catechin were suspended/dissolved in ethanol. […] The OD600 of each culture was measured to be used to normalize violaceum levels to total biomass. […] The optical density was measured at 590 nm. The OD590 values were normalized to the biomass measurements determined for the unextracted samples.
VIOLACEUM ASSAY: The Violaceum assay was performed to further corroborate the results obtained in the Halo assay and to provide a quantitative measure of activity. This assay is based on the same principles as for the Halo assay, but since the assay is performed in solution, violaceum production can be more readily quantified. […]

[12] = test system: Chromobacterium violaceum (CV026); test: Halo assay (anti-quorum sensing); assay type: cell-based; conditions: CV026 agar plate; for Catechin at the highest concentrations
[13] = P. aeruginosa, strain not stated

Molecule: O=C(O)[C@H]1O[C@@H](Oc2cc3oc(-c4ccccc4)cc(=O)c3c(O)c2O)[C@H](O)[C@@H](O)[C@@H]1O [Baicalin]
- inhibition of quorum sensing ([1]; C. violaceum CV026): inhibits quorum sensing
- inhibition of quorum sensing [2]: inhibits quorum sensing

Molecule: O=C(/C=C/c1ccc(O)c(O)c1)O[C@@H]1C[C@](O)(C(=O)O)C[C@@H](O)[C@H]1O [Chlorogenic acid]
- inhibition of quorum sensing [3, 13]: inhibits quorum sensing

Molecule: O=CC=Cc1ccccc1 [Cinnamaldehyde]
- inhibition of quorum sensing ([1]; C. violaceum CV026): inhibits quorum sensing
- inhibition of quorum sensing ([3]; P. aeruginosa PAO1): inhibits quorum sensing

Molecule: O=C(O[C@@H]1Cc2c(O)cc(O)cc2O[C@@H]1c1cc(O)c(O)c(O)c1)c1cc(O)c(O)c(O)c1 [EGCG]
- inhibition of quorum sensing [3, 13]: inhibits quorum sensing

Molecule: COc1ccc([C@@H]2CC(=O)c3c(O)cc(O[C@@H]4O[C@H](CO[C@@H]5O[C@@H](C)[C@H](O)[C@@H](O)[C@H]5O)[C@@H](O)[C@H](O)[C@H]4O)cc3O2)cc1O [Hesperidin]
- inhibition of quorum sensing ([1]; C. violaceum, strain not stated): inhibits quorum sensing
- inhibition of quorum sensing [4]: inhibits quorum sensing

Molecule: O=C1C[C@@H](c2ccc(O)cc2)Oc2cc(O)cc(O)c21 [Naringenin]
- inhibition of quorum sensing ([3]; P. aeruginosa PAO1): inhibits quorum sensing

Molecule: O=C(/C=C/c1ccc(O)c(O)c1)O[C@H](Cc1ccc(O)c(O)c1)C(=O)O [Rosmarinic acid]
- inhibition of quorum sensing [5]: inhibits quorum sensing
- inhibition of quorum sensing ([1]; C. violaceum 31532): inhibits quorum sensing
- inhibition of quorum sensing ([1]; C. violaceum CV026): inhibits quorum sensing
- inhibition of quorum sensing ([3]; P. aeruginosa PAO1): inhibits quorum sensing

Molecule: C[S+]([O-])CCCCN=C=S (centres unmarked) [Sulforaphane]
- inhibition of quorum sensing [3, 13]: inhibits quorum sensing

Molecule: O=C1OCC2OC(=O)c3cc(O)c(O)c(O)c3-c3c(O)c(O)c(O)c4c3C(=O)OC(C2OC(=O)c2cc(O)c(O)c(O)c2-c2c1cc(O)c(O)c2O)C1OC(=O)c2c-4c(O)c(O)c(O)c2C1O (centres unmarked) [Vescalagin]
- inhibition of quorum sensing [6]: inhibits quorum sensing
- inhibition of quorum sensing [3, 13]: inhibits quorum sensing
- inhibition of quorum sensing [7]: inhibits quorum sensing

Molecule: (+)-Catechin
- effect on pyocyanin production [8]: slightly enhances production
- anti-biofilm activity [9]: similar
- anti-biofilm activity [10]: similar
- inhibition of violaceum production (quorum sensing) ([11]; highest concentration tested, 5 mg/mL, OD590 normalized to biomass): over 85%
- inhibition of violaceum production ([11]; three lowest concentrations tested (1.25, 0.5 and 0.25 mg/mL)): 10-25%
- bacterial growth in halo assay [12]: antibiotic effect inhibiting growth of the bacteria
